Laboratory results published in publication PMC8153216 (Chemical Science, 2021).

Tested on: Coxsackievirus B3 (CVB3)
Assay: Anti Coxsackie B3 activity assay
Assay type: cell-based, Coxsackie viruse B3 (Nancy strain)
Conditions: CVB3 in Vero cells

SMILES | SI (TC50/IC50)
Cc1cc(CCCOc2c(C)cc(-c3noc(C(F)(F)F)n3)cc2C)on1 [Pleconaril] | 14045.1
NC(=O)c1ncn([C@@H]2O[C@H](CO)[C@@H](O)[C@H]2O)n1 [Ribavirin] | 5.2
